{"source": "patent US20250197864A1", "about": "“LNCRNA TRANSCRIPTS IN MELANOMAGENESIS” (The Regents of the University of California, priority 2021, published 2025)", "test_system": "gene expression in D04 melanoma cells", "test": "RNA-Seq differential expression analysis (DESeq2)", "assay_type": "cell-based, human", "details": "up-regulated list", "method": "Total RNA was isolated using the RNeasy mini Kit (QIAGEN) following the manufacturer's protocol. Quality check for extracted RNA was done using 2100 Bioanalyzer (Agilent Technologies, USA) or Tapestation System (Agilent Technologies, USA). […] For samples used for identification of MAPK-responsive lncRNAs, paired-end, 101-bp sequencing was performed by Centrillion Genomic Services (Centrillion Biosciences, USA) on an Illumina HiSeq 2000. For DE gene analysis of ASO-transfected D04 samples, paired-end, 2×150-bp sequencing was performed by Genewiz (USA) on a Illumina HiSeq.\nSequence reads were aligned to the human genome (hg19) using TopHat (Version 2.0.11).\nDifferential expression (DE) analysis was done using DESeq2. Differentially expressed genes were defined by more than 1.5-fold changes (log 2 >0.58 or <−0.58) in expression with FDR<0.05. GO term analysis was done using DAVID Functional Annotation Clustering analysis.\nTo examine the biomolecular changes upon TRASH-inhibition in melanoma, D04 cells were treated with TRASH-ASOs (SEQ ID NO:15) and Control-ASOs and RNA was extracted and used for RNA-Seq. […] These GO terms consisted of genes encoding growth factors, tyrosine kinases, G protein coupled receptor subunits, and collagen subunits. Scatter plot diagram showing differential gene expression after TRASH-ASO treatment compared to Control-ASO treatment. (cut-off for significance was adjusted p-value <0.05). Data was obtained from RNA-Seq of D04 melanoma cells, treatment period was three days. (FIG. 5c)", "data": [{"sequence": "GACTGGAGATAATTAA (gapmer, pattern not given here) [SEQ ID NO: 15, GapmeR ASO targeting AC004540.4 (TRASH), exon region of both isoforms; used for in vitro experiments]", "values": [{"measurement": "log2FoldChange BBC3", "setting": "ENSG00000105327", "result": 0.619}, {"measurement": "log2FoldChange CD33", "setting": "ENSG00000105383", "result": 0.929}, {"measurement": "log2FoldChange PLA2G4C", "setting": "ENSG00000105499", "result": 0.608}, {"measurement": "log2FoldChange HBP1", "setting": "ENSG00000105856", "result": 0.6116}, {"measurement": "log2FoldChange ATP6V0A4", "setting": "ENSG00000105929", "result": 0.8207}, {"measurement": "log2FoldChange CPED1", "setting": "ENSG00000106034", "result": 0.7035}, {"measurement": "log2FoldChange SERPINE1", "setting": "ENSG00000106366", "result": 0.6383}, {"measurement": "log2FoldChange ABI3", "setting": "ENSG00000108798", "result": 0.9913}, {"measurement": "log2FoldChange SLC16A6", "setting": "ENSG00000108932", "result": 0.91}, {"measurement": "log2FoldChange LPXN", "setting": "ENSG00000110031", "result": 0.7633}, {"measurement": "log2FoldChange ATG2A", "setting": "ENSG00000110046", "result": 0.5858}, {"measurement": "log2FoldChange CHKA", "setting": "ENSG00000110721", "result": 0.7402}, {"measurement": "log2FoldChange RASAL1", "setting": "ENSG00000111344", "result": 0.896}, {"measurement": "log2FoldChange RBM24", "setting": "ENSG00000112183", "result": 0.8237}, {"measurement": "log2FoldChange TREML2", "setting": "ENSG00000112195", "result": 1.205}, {"measurement": "log2FoldChange WWC1", "setting": "ENSG00000113645", "result": 0.6261}, {"measurement": "log2FoldChange STC2", "setting": "ENSG00000113739", "result": 0.7339}, {"measurement": "log2FoldChange TNNC1", "setting": "ENSG00000114854", "result": 1.043}, {"measurement": "log2FoldChange IL1A", "setting": "ENSG00000115008", "result": 0.7632}, {"measurement": "log2FoldChange ACTL8", "setting": "ENSG00000117148", "result": 1.133}, {"measurement": "log2FoldChange TSPAN1", "setting": "ENSG00000117472", "result": 0.7518}, {"measurement": "log2FoldChange IRF6", "setting": "ENSG00000117595", "result": 0.7078}, {"measurement": "log2FoldChange DIEXF", "setting": "ENSG00000117597", "result": 0.6611}, {"measurement": "log2FoldChange MUC5B", "setting": "ENSG00000117983", "result": 0.599}, {"measurement": "log2FoldChange NR4A3", "setting": "ENSG00000119508", "result": 1.046}, {"measurement": "log2FoldChange GPR75", "setting": "ENSG00000119737", "result": 0.8604}, {"measurement": "log2FoldChange AVPI1", "setting": "ENSG00000119986", "result": 0.7469}, {"measurement": "log2FoldChange DUSP1", "setting": "ENSG00000120129", "result": 1.094}, {"measurement": "log2FoldChange FABP3", "setting": "ENSG00000121769", "result": 0.9724}, {"measurement": "log2FoldChange CCRL2", "setting": "ENSG00000121797", "result": 1.162}, {"measurement": "log2FoldChange PAEP", "setting": "ENSG00000122133", "result": 0.8405}, {"measurement": "log2FoldChange PLAU", "setting": "ENSG00000122861", "result": 1.118}, {"measurement": "log2FoldChange SLC25A16", "setting": "ENSG00000122912", "result": 0.8143}, {"measurement": "log2FoldChange KCNK15", "setting": "ENSG00000124249", "result": 1.203}, {"measurement": "log2FoldChange PAIP2B", "setting": "ENSG00000124374", "result": 1.015}, {"measurement": "log2FoldChange MT1G", "setting": "ENSG00000125144", "result": 1.136}, {"measurement": "log2FoldChange MT2A", "setting": "ENSG00000125148", "result": 0.8492}, {"measurement": "log2FoldChange BMP4", "setting": "ENSG00000125378", "result": 0.657}, {"measurement": "log2FoldChange IL1B", "setting": "ENSG00000125538", "result": 1.059}, {"measurement": "log2FoldChange PSD4", "setting": "ENSG00000125637", "result": 0.7899}, {"measurement": "log2FoldChange ARMCX1", "setting": "ENSG00000126947", "result": 0.5964}, {"measurement": "log2FoldChange BEST3", "setting": "ENSG00000127325", "result": 1.14}, {"measurement": "log2FoldChange KLF2", "setting": "ENSG00000127528", "result": 0.7602}, {"measurement": "log2FoldChange AKAP9", "setting": "ENSG00000127914", "result": 0.609}, {"measurement": "log2FoldChange KRT17", "setting": "ENSG00000128422", "result": 1.116}, {"measurement": "log2FoldChange VGF", "setting": "ENSG00000128564", "result": 0.9691}, {"measurement": "log2FoldChange CSRP3", "setting": "ENSG00000129170", "result": 1.122}, {"measurement": "log2FoldChange AJUBA", "setting": "ENSG00000129474", "result": 0.6241}, {"measurement": "log2FoldChange CDH15", "setting": "ENSG00000129910", "result": 0.8921}, {"measurement": "log2FoldChange SYT5", "setting": "ENSG00000129990", "result": 1.139}, {"measurement": "log2FoldChange UNC13A", "setting": "ENSG00000130477", "result": 1.071}, {"measurement": "log2FoldChange ULBP3", "setting": "ENSG00000131019", "result": 0.6552}, {"measurement": "log2FoldChange ZBED3", "setting": "ENSG00000132846", "result": 0.778}, {"measurement": "log2FoldChange BEX2", "setting": "ENSG00000133134", "result": 0.7157}, {"measurement": "log2FoldChange BEX1", "setting": "ENSG00000133169", "result": 0.6316}, {"measurement": "log2FoldChange BTG1", "setting": "ENSG00000133639", "result": 0.69}, {"measurement": "log2FoldChange DYDC2", "setting": "ENSG00000133665", "result": 0.987}, {"measurement": "log2FoldChange TRPM1", "setting": "ENSG00000134160", "result": 1.155}, {"measurement": "log2FoldChange PTPN22", "setting": "ENSG00000134242", "result": 1.051}, {"measurement": "log2FoldChange FST", "setting": "ENSG00000134363", "result": 0.8947}, {"measurement": "log2FoldChange SLC37A2", "setting": "ENSG00000134955", "result": 0.7294}, {"measurement": "log2FoldChange NT5E", "setting": "ENSG00000135318", "result": 0.6889}, {"measurement": "log2FoldChange RDH5", "setting": "ENSG00000135437", "result": 0.8676}, {"measurement": "log2FoldChange PKIB", "setting": "ENSG00000135549", "result": 0.7917}, {"measurement": "log2FoldChange DYSF", "setting": "ENSG00000135636", "result": 0.9396}, {"measurement": "log2FoldChange LCP1", "setting": "ENSG00000136167", "result": 1.021}, {"measurement": "log2FoldChange IL6", "setting": "ENSG00000136244", "result": 0.8209}, {"measurement": "log2FoldChange MYC", "setting": "ENSG00000136997", "result": 0.6121}, {"measurement": "log2FoldChange RNF144B", "setting": "ENSG00000137393", "result": 1.04}, {"measurement": "log2FoldChange ARHGAP29", "setting": "ENSG00000137962", "result": 0.6178}, {"measurement": "log2FoldChange AOX1", "setting": "ENSG00000138356", "result": 1.099}, {"measurement": "log2FoldChange FGF5", "setting": "ENSG00000138675", "result": 0.9785}, {"measurement": "log2FoldChange ANXA3", "setting": "ENSG00000138772", "result": 0.8166}, {"measurement": "log2FoldChange SLC46A3", "setting": "ENSG00000139508", "result": 0.6816}, {"measurement": "log2FoldChange CYP11A1", "setting": "ENSG00000140459", "result": 0.9698}, {"measurement": "log2FoldChange RHCG", "setting": "ENSG00000140519", "result": 1.166}, {"measurement": "log2FoldChange ITGAX", "setting": "ENSG00000140678", "result": 0.7501}, {"measurement": "log2FoldChange MAP1LC3B", "setting": "ENSG00000140941", "result": 0.7968}, {"measurement": "log2FoldChange NPC1", "setting": "ENSG00000141458", "result": 0.6586}, {"measurement": "log2FoldChange SLC14A1", "setting": "ENSG00000141469", "result": 1.217}, {"measurement": "log2FoldChange NECTIN4", "setting": "ENSG00000143217", "result": 1.206}, {"measurement": "log2FoldChange ABL2", "setting": "ENSG00000143322", "result": 0.8447}, {"measurement": "log2FoldChange RORC", "setting": "ENSG00000143365", "result": 0.8825}, {"measurement": "log2FoldChange TUFT1", "setting": "ENSG00000143367", "result": 0.8984}, {"measurement": "log2FoldChange DYRK3", "setting": "ENSG00000143479", "result": 0.5876}, {"measurement": "log2FoldChange DUSP10", "setting": "ENSG00000143507", "result": 0.6264}, {"measurement": "log2FoldChange SLC20A1", "setting": "ENSG00000144136", "result": 0.585}]}]}
